Results taken from patent US20100240683A1, “COMBINATION THERAPY, COMPOSITION AND METHODS FOR THE TREATMENT OF CARDIOVASCULAR DISORDERS” (Syndromex Ltd., priority 2007, published 2010).

Tests used:
CYP2C9 = CYP2C9 (Homo sapiens, UniProt P11712); experiment: Fluorimetric CYP inhibition assay, CYP2C9-MFC; settings: human, MFC; for inhibition at 0 μM: positive control 0.00 μM (second line); for inhibition at 0.01 μM: positive control 0.01 μM (first line); for inhibition at 0.02 μM: positive control 0.02 μM; for inhibition at 0.06 μM: positive control 0.06 μM; for inhibition at 1.67 μM: positive control 1.67 μM
Chain of CYP2C9 (P11712 whole entry): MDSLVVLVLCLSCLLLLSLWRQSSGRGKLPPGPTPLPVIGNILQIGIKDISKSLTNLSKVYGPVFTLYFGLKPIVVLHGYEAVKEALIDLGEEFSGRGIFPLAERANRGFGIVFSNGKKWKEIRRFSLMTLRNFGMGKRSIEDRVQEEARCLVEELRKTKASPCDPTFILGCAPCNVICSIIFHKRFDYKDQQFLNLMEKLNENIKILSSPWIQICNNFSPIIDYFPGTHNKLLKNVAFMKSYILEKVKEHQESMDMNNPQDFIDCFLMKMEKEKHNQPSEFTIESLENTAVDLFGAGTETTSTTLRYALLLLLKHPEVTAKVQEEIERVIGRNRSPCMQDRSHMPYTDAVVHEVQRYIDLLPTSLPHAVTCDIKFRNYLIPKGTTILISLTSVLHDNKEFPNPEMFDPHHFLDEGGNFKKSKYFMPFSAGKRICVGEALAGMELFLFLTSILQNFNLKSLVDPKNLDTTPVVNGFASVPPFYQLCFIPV

CYP2C8 [1] = molecular target: T1, CYP2C8 (Homo sapiens, UniProt P10632)
T1 sequence (P10632 1-490): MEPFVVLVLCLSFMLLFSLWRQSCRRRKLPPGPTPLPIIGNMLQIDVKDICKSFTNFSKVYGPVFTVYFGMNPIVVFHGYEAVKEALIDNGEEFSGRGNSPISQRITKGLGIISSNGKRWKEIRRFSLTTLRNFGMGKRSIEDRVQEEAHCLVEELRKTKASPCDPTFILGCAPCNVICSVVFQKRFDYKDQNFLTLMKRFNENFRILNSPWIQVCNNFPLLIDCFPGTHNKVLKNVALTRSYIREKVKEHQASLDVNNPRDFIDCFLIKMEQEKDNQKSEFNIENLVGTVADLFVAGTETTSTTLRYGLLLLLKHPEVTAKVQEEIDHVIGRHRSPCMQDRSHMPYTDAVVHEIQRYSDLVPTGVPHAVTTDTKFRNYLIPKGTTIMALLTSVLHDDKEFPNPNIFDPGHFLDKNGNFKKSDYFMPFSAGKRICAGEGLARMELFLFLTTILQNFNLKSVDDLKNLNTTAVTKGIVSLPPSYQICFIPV

CYP2C8 [2] = molecular target: T1, CYP2C8; experiment: in vitro
CYP2B6 = molecular target: T2, CYP2B6 (Homo sapiens, UniProt P20813); experiment: Fluorimetric CYP inhibition assay, CYP2B6-EFC; settings: read-out: IC50 CYP2B6; substrate EFC
T2 sequence (P20813 1-491): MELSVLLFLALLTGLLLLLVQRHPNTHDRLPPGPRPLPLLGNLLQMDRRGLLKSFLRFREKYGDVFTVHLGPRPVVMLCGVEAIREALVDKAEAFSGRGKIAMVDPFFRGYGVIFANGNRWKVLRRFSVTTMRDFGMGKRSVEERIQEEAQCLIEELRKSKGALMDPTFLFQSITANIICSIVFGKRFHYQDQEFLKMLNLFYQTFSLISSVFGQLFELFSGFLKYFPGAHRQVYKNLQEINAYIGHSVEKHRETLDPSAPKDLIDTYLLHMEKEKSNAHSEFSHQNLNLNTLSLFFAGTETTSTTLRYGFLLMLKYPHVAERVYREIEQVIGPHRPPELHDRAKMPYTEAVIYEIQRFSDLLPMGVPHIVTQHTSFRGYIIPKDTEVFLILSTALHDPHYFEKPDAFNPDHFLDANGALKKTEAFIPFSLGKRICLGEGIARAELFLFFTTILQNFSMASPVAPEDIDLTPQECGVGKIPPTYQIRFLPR

Guinea pigs = experiment: Hypolipidemic effect in Guinea pigs model (plasma TG, cholesterol, lipoproteins); assay type: in vivo, Guinea pig; settings: Simvastatin table: gavage 10 mg/kg/bw, 21 days, n = 8
Method: • Guinea pigs (400-500 g) were obtained from Harlan (Israel) or Harlan (Netherlands). Animals were treated by gavage with Medica 16αα, Medica 16ββ and Simvastatin as indicated in 1% CMC for the specified treatment periods. During treatment period the animals were weighed and observed daily.
Non-fasted guinea pigs were anesthetized with ketamine (75 mg/kg body weight) and xylazine (6 mg/kg body weight), followed by S.C. abdominal injections of 2% lignocaine. Anesthetized animals were bled into tubes containing EDTA. Plasma chylomicrons were removed by centrifugation (20 min, 30K rpm, TST 55.5 rotor). Plasma TG was assayed by Roche/Hitachi kit. Plasma cholesterol was assayed by Roche Diagnostic's kit.
Chylomicrons-free plasma was subjected to continuous KBr-gradient centrifugation (24 h, 40K rpm, SW41 rotor), followed by fractionating gradient tubes into 0.5 ml fractions. TG, cholesterol and protein of each fraction were measured as described above. […]
Guinea pigs were treated by gavage with M16αα, M16ββ or with Simvastatin, weighed and observed daily. Plasma triglycerides (TG) and cholesterol, as well as plasma lipoproteins and their composition were examined on days 21 and 22 (as specified in the following tables) of the experiments, as described in Experimental procedures. As clearly shown by Table 3 and FIG. 1, treatment with M16αα decreases plasma triglycerides (TG).

CYP1A2 = molecular target: T3, CYP1A2 (Homo sapiens, UniProt P05177); experiment: in vitro
T3 sequence (P05177 1-516): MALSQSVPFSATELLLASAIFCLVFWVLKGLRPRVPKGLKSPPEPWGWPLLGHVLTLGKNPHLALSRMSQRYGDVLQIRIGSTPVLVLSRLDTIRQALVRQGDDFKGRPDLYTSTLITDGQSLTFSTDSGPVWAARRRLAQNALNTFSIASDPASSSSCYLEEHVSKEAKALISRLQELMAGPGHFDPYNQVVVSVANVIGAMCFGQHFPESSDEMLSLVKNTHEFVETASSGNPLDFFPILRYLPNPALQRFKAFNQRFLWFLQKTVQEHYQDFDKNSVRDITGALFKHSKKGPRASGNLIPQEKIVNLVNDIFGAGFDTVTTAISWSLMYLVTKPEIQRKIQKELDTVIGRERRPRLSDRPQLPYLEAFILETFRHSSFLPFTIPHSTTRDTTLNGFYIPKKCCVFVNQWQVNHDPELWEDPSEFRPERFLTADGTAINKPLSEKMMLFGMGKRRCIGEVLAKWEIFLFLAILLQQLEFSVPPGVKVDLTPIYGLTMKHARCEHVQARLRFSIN

Compound `Nc1ccc(S(=O)(=O)Nc2ccnn2-c2ccccc2)cc1` [Sulfaphenazole] has an inhibition at 0 μM (CYP2C9; % Inhibition (set 1)) of 0%, an inhibition at 0.01 μM (CYP2C9; % Inhibition (set 1)) of 0% and an inhibition at 0.02 μM (CYP2C9; % Inhibition (set 1)) of 3%. It also gave an inhibition at 0.06 μM (CYP2C9; % Inhibition (set 1)) of 11%, an inhibition at 1.67 μM (CYP2C9; % Inhibition (set 1)) of 76% and an inhibition at 5 μM (CYP2C9; % Inhibition (set 1), positive control 5.00 μM) of 89%. It also gave an inhibition at 0 μM (CYP2C9; % Inhibition (set 2)) of 0%, an inhibition at 0.01 μM (CYP2C9; % Inhibition (set 2)) of 1% and an inhibition at 0.02 μM (CYP2C9; % Inhibition (set 2)) of 3%. It also gave an inhibition at 0.06 μM (CYP2C9; % Inhibition (set 2)) of 6% and an inhibition at 1.67 μM (CYP2C9; % Inhibition (set 2)) of 74%.

`O=c1c(O)c(-c2ccc(O)c(O)c2)oc2cc(O)cc(O)c12` [Quercetin, reference compound] was tested, and the IC50 (CYP2C8 [1]) was 1400 nM, the “% Inhibition (set 2)” value (CYP2C8 [1]; 0.05 μM) was 0% and the inhibition at 0.05 μM (CYP2C8 [2]; % Inhibition (set 1)) was 8%. The inhibition at 0.41 μM (CYP2C8 [2]; % Inhibition (set 1)) was 16%, the inhibition at 1.23 μM (CYP2C8 [2]; % Inhibition (set 1)) was 51% and the inhibition at 3.7 μM (CYP2C8 [2]; % Inhibition (set 1)) was 88%. The inhibition at 11.11 μM (CYP2C8 [2]; % Inhibition (set 1)) was 100%, the inhibition at 33.33 μM (CYP2C8 [2]; % Inhibition (set 1)) was 100% and the inhibition at 100 μM (CYP2C8 [2]; % Inhibition (set 1)) was 100%. It also gave an inhibition at 0.05 μM (CYP2C8 [2]; % Inhibition (set 2)) of 0%, an inhibition at 0.41 μM (CYP2C8 [2]; % Inhibition (set 2)) of 9% and an inhibition at 1.23 μM (CYP2C8 [2]; % Inhibition (set 2)) of 32%. For the same compound, the inhibition at 3.7 μM (CYP2C8 [2]; % Inhibition (set 2)) was 89%, the inhibition at 11.11 μM (CYP2C8 [2]; % Inhibition (set 2)) was 98% and the inhibition at 33.33 μM (CYP2C8 [2]; % Inhibition (set 2)) was 100%. It also gave an inhibition at 100 μM (CYP2C8 [2]; % Inhibition (set 2)) of 100%.

`N[C@@H]1C[C@H]1c1ccccc1` (racemic) [Tranylcypromine, reference compound] showed an IC50 (CYP2B6) of 5.9 µM.

`CCC(C)(C)C(=O)O[C@H]1C[C@@H](C)C=C2C=C[C@H](C)[C@H](CC[C@@H]3C[C@@H](O)CC(=O)O3)[C@H]21` [Simvastatin, reference compound] was tested, and the “Plasma TG” value (Guinea pigs) was 83 ± 16 mg % and the Plasma cholesterol (Guinea pigs; *p < 0.05) was 23 ± 2.0* mg %.

`Cc1nc2c([nH]1)c(=O)n(C)c(=O)n2Cc1ccco1` [Furafylline, reference compound] gave an inhibition at 5.56 μM (CYP1A2; % Inhibition (set 1)) of 90% and an inhibition at 50 μM (CYP1A2; % Inhibition (set 2)) of 99%.
